Measurements from ChEMBL document CHEMBL5291721, “A preclinical secondary pharmacology resource illuminates target-adverse drug reaction associations of marketed drugs” (Nat Commun, 2023).

Columns and labels:
[1] = target: Vascular endothelial growth factor receptor 2 (Homo sapiens, UniProt P35968); assay type: functional
[2] = target: T1, Thromboxane A2 receptor (Homo sapiens, UniProt P21731); assay type: functional, cell-based
T1 sequence (P21731 whole entry): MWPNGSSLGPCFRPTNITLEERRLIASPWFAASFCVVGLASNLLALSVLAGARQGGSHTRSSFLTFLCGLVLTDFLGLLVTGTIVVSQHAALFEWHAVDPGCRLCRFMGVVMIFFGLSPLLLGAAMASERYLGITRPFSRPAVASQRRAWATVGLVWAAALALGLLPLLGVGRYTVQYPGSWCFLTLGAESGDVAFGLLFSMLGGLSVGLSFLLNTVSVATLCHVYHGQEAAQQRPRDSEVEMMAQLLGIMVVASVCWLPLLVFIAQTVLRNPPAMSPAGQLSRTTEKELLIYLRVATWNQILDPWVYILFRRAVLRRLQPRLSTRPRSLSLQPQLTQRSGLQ

[3] = target: T2, Alpha-2A adrenergic receptor (Homo sapiens, UniProt P08913)
T2 sequence (P08913 whole entry): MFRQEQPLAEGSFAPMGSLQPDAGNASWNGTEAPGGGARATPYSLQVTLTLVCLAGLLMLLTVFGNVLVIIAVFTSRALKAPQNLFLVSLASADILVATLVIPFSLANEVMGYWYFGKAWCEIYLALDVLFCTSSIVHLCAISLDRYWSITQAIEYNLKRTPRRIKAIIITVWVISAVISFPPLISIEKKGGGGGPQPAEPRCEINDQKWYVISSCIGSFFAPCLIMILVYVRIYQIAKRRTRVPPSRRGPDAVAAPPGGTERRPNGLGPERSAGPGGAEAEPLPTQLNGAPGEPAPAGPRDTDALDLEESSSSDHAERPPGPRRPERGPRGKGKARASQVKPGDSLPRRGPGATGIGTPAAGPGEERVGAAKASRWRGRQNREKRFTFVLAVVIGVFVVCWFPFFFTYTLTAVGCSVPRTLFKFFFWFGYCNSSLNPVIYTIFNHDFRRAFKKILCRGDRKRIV

[4] = target: Kappa-type opioid receptor (Homo sapiens, UniProt P41145)
[5] = target: T3, Gastrin/cholecystokinin type B receptor (Homo sapiens, UniProt P32239)
T3 sequence (P32239 whole entry): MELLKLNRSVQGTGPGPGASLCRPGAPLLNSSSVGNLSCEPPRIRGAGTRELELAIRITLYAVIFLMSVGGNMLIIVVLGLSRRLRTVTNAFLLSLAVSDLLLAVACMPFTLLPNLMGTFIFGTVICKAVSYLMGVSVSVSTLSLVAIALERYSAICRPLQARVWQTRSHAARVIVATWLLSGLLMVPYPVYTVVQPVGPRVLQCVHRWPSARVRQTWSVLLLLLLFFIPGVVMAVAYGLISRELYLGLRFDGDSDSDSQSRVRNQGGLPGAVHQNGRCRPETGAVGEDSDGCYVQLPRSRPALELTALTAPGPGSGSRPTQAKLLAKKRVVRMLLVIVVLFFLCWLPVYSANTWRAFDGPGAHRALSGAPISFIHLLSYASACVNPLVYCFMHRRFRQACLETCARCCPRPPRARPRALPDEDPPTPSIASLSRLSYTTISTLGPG

[6] = target: Cannabinoid receptor 1 (Homo sapiens, UniProt P21554); assay type: functional, cell-based
[7] = target: Vasopressin V2 receptor (Homo sapiens, UniProt P30518)
[8] = target: T4, Alpha-1A adrenergic receptor (Homo sapiens, UniProt P35348); assay type: functional, cell-based
T4 sequence (P35348 whole entry): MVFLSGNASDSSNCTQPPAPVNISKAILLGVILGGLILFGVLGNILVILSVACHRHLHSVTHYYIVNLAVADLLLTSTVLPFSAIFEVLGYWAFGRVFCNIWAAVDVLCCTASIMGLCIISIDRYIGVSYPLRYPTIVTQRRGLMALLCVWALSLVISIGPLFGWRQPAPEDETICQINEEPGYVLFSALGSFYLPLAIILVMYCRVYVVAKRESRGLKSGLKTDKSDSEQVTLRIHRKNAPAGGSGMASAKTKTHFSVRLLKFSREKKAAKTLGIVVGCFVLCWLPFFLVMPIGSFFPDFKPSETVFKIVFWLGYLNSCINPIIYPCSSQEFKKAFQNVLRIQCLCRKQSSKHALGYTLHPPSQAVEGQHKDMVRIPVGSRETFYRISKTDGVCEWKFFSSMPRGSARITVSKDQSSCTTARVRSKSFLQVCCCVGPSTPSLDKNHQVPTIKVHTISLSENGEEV

[9] = target: T5, B2 bradykinin receptor (Homo sapiens, UniProt P30411)
T5 sequence (P30411 whole entry): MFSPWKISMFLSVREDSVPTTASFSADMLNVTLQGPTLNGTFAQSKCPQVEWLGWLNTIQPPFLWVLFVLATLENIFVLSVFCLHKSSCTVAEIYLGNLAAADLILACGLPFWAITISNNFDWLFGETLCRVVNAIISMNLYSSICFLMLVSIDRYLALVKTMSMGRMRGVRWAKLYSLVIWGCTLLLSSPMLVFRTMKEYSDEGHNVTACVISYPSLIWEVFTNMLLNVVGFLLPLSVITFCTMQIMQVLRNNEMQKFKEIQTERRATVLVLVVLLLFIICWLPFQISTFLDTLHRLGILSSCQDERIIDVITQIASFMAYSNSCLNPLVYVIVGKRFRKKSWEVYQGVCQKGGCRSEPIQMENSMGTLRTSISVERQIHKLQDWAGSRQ

[10] = target: Beta-2 adrenergic receptor (Homo sapiens, UniProt P07550)
[11] = target: T6, Alpha-2B adrenergic receptor (Homo sapiens, UniProt P18089)
T6 sequence (P18089 whole entry): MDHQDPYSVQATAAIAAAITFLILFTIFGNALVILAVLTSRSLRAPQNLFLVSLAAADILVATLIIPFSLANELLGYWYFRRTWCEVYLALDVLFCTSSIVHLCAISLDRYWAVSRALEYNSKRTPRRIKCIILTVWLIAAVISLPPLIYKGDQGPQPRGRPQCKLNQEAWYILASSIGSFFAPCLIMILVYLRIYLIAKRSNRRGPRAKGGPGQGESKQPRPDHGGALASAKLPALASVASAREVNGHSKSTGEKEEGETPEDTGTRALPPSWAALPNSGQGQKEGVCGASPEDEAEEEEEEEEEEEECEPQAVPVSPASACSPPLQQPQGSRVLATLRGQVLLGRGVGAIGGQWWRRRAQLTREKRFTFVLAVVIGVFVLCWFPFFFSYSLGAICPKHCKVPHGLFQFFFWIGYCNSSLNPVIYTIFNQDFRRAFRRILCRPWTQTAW
Further: assay procedure not described here.

Chain of Cannabinoid receptor 1 (P21554 whole entry): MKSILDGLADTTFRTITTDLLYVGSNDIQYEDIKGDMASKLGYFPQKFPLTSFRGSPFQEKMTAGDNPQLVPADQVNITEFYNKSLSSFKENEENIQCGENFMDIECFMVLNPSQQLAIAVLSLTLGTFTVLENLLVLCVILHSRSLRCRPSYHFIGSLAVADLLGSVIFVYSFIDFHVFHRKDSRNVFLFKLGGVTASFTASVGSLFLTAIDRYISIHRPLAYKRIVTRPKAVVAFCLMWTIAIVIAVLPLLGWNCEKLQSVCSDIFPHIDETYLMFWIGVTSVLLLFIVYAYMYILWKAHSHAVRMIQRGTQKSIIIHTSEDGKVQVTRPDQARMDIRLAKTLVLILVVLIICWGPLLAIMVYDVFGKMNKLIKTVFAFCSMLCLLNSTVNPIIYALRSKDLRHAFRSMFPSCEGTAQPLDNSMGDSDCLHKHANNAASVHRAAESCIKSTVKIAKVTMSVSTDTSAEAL
Chain of Vasopressin V2 receptor (P30518 whole entry): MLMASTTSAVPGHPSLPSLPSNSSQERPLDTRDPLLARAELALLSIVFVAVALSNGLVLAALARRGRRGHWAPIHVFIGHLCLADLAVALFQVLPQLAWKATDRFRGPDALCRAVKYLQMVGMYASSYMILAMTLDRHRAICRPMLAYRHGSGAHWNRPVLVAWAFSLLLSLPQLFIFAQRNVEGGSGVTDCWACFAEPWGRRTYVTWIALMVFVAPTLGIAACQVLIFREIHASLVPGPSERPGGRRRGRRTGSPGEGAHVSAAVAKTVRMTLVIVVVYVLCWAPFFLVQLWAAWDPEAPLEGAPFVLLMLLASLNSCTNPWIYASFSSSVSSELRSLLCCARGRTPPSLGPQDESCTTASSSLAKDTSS
Chain of Vascular endothelial growth factor receptor 2 (P35968 whole entry): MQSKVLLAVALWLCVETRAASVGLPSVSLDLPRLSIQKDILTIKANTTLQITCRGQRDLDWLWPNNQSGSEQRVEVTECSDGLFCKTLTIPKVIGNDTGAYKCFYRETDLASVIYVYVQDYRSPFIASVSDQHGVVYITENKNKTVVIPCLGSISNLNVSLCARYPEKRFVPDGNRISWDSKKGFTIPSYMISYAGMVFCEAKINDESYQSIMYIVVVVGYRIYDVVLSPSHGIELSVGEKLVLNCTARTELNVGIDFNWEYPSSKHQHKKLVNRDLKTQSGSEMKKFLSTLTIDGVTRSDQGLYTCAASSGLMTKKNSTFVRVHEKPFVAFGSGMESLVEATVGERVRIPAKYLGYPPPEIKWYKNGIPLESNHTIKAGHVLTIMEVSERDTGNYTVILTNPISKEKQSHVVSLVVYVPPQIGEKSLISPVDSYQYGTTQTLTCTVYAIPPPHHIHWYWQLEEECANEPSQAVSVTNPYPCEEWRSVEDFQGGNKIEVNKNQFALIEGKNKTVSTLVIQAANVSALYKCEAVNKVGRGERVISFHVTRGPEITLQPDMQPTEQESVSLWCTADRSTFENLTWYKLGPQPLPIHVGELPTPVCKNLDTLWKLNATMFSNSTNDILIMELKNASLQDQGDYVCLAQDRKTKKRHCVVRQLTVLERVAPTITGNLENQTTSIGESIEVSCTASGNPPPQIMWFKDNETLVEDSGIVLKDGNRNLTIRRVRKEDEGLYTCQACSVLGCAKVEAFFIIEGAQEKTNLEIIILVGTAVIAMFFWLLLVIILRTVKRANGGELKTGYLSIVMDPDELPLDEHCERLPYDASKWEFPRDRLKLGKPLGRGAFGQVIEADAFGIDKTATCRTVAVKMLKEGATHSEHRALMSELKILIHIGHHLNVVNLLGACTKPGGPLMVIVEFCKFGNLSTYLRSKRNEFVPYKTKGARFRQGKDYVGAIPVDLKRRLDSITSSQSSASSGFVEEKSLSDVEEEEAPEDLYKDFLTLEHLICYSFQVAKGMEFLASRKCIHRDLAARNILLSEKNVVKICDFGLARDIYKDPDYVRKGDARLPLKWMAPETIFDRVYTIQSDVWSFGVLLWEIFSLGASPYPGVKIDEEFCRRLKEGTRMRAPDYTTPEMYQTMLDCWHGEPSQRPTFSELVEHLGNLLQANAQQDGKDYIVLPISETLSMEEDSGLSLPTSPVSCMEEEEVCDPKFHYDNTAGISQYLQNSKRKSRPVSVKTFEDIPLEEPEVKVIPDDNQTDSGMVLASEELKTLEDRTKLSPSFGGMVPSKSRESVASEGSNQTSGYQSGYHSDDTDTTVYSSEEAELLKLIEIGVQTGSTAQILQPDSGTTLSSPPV
Chain of Beta-2 adrenergic receptor (P07550 whole entry): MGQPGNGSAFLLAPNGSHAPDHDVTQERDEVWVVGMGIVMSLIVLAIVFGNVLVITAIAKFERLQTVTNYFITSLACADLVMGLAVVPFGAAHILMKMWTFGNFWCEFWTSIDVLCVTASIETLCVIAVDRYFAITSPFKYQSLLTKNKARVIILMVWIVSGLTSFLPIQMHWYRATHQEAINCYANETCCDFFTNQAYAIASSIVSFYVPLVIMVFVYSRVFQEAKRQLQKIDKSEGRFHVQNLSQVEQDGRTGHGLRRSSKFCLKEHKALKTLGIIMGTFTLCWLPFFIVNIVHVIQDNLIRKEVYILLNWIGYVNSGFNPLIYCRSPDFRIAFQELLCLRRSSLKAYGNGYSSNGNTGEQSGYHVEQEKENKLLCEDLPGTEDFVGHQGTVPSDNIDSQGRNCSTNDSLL
Chain of Kappa-type opioid receptor (P41145 whole entry): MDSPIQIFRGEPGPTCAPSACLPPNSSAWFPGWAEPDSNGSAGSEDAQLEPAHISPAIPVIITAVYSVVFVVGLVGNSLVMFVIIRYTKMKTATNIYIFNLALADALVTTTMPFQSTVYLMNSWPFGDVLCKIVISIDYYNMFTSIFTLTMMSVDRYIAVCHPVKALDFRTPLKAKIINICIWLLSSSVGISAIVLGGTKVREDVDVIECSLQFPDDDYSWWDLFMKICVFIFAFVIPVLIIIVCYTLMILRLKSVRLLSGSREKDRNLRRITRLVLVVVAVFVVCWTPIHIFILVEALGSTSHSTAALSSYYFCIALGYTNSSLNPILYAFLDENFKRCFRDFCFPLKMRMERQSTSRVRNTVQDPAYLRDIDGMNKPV

SMILES	AC50 [1] [µM]	AC50 [2] [µM]	AC50 [3] [µM]	AC50 [4] [µM]	AC50 [5] [µM]	AC50 [6] [µM]	AC50 [7] [µM]	AC50 [8] [µM]	AC50 [9] [µM]	AC50 [10] [µM]	AC50 [11] [µM]
CC(C)(S)[C@@H](N)C(=O)O [PENICILLAMINE]	> 30	> 30	> 30								
CC[C@H]1OC(=O)[C@H](C)[C@@H](O[C@H]2C[C@@](C)(OC)[C@@H](O)[C@H](C)O2)[C@H](C)[C@@H](O[C@@H]2O[C@H](C)C[C@H](N(C)C)[C@H]2O)[C@](C)(O)C[C@@H](C)CN(C)[C@H](C)[C@@H](O)[C@]1(C)O [AZITHROMYCIN]		> 30	> 30	> 10	> 30	> 30	> 30	> 30	> 30		
C=C[C@H]1C[N@@]2CC[C@H]1C[C@H]2[C@H](O)c1ccnc2ccc(OC)cc12 [QUININE]	> 30	> 30	5.45								
COc1cc(NC(C)CCCN)c2ncccc2c1 (stereo unspecified) [PRIMAQUINE]	> 30	> 30			> 30		> 30		> 30		
CC(C)C[C@H]1C(=O)N2CCC[C@H]2[C@]2(O)O[C@](NC(=O)[C@@H]3C=C4c5cccc6[nH]c(Br)c(c56)C[C@H]4N(C)C3)(C(C)C)C(=O)N12 [BROMOCRIPTINE]	> 30	18.8		12.8	> 30	> 30	> 30		> 30	8.4	
CCCCN1C[C@H](O)[C@@H](O)[C@H](O)[C@H]1CO				> 30	> 30		> 30	> 30	> 30	> 30	> 30
CC(=O)NCCCS(=O)(=O)O [ACAMPROSATE]				> 30	> 30	> 30	> 30	> 30	> 30		> 30
COc1cc2nc(N(C)CCCNC(=O)C3CCCO3)nc(N)c2cc1OC (stereo unspecified) [ALFUZOSIN]				> 30	> 30	> 30	> 30		> 30	> 30	8.9
CCC1=C(C)CN(C(=O)NCCc2ccc(S(=O)(=O)NC(=O)N[C@H]3CC[C@H](C)CC3)cc2)C1=O [GLIMEPIRIDE]	> 30	> 30	> 30								
CC(=O)Nc1ccc(O)cc1 [ACETAMINOPHEN]	> 30	> 30	> 30			> 30		> 30			
Clc1ccc2nsnc2c1NC1=NCCN1 [TIZANIDINE]				> 10	> 30	> 30	> 30		> 30	> 10	0.292
CN(C)CC(c1ccc(O)cc1)C1(O)CCCCC1 (stereo unspecified) [DESVENLAFAXINE]	> 30	> 30	> 30								
